# Measured values taken from US20130005733A1, “COMBINATION ANTI-CANCER THERAPY” (OSI Pharmaceuticals, LLC, priority 2010, published 2013).
# Experiments:
# [1] = test system: IGF-1R phosphorylation in H460 lung carcinoma cells; test: Phospho-RTK antibody array (Proteome Profiler); format: cell-based, Human; conditions: 3 uM, relative to DMSO
# From the text: (§1) Measurement of phosphorylated receptor tyrosine kinases: A commercially available membrane-based antibody array (Proteome Profiler Array, R&D Systems, Minneapolis, Minn.) was used to simultaneously co-immunoprecipitate 42 different receptor tyrosine kinases (RTKs) in duplicate and measure specific phospho-epitopes on each. The phospho-epitopes were detected by chemiluminescence, quantitated based on pixel density for each pair of spots and expressed relative to vehicle-treated controls. Pixel density was determined using AlphaEaseFC software (Alpha Innotech, San Leandro, Calif.).
# [2] = test system: IR phosphorylation in Ovcar-3 ovarian carcinoma cells; test: Phospho-RTK antibody array (Proteome Profiler); format: cell-based, Human; conditions: Ovcar-3 (KRAS wt); 3 uM each agent; relative to DMSO
# From the text: as §1
# [3] = test system: IGF-1R phosphorylation in MDAH2774 ovarian carcinoma cells; test: Phospho-RTK antibody array (Proteome Profiler); format: cell-based, Human; conditions: MDAH2774 (KRAS mutant); 3 uM each agent; 2 hour treatment
# From the text: as §1
# [4] = test system: IR phosphorylation in MDAH2774 ovarian carcinoma cells; test: Phospho-RTK antibody array (Proteome Profiler); format: cell-based, Human; conditions: MDAH2774 (KRAS mutant); 3 uM each agent; 2 hour treatment
# From the text: as §1
# Ovcar-5 = test: Cell Titer Glo proliferation assay, ovarian cell line panel; format: cell-based, Human; conditions: Ovcar-5 (KRAS mutant), single agent, cell viability at 72 hours
# Protocol: (§2) Cell lines: Human cancer cell lines were purchased from the American Type Culture Collection (ATCC). The cell lines Ovcar-3, MDAH2774, Caov3, lgrov-1, and MDA-MB-231 were grown in media as prescribed by the ATCC, containing 10% FCS. HNSCC 1483, HNSCC 1386, HNSCC 1186 were a gift from Memorial Sloan Kettering and were cultured in 1:1 DMEM: Hams F12 with 10% FCS. Ovcar-4, Ovcar-5, and Ovcar-8 were obtained from the NCI and were grown in RPMI with 10% FCS. Measurement of proliferation: Inhibition of proliferation was measured using the Cell Titer Glo Assay (Promega Corporation, Madison, WI). Cell lines were seeded at a density of 3000 cells per well in a 96-well plate. 24 hours after plating cells were dosed with varying concentrations of drug, either as a single agent or in combination. […] Inhibition of proliferation, relative to vehicle-treated controls was expressed as a fraction of 1 and graphed using PRISM® software (Graphpad Software, San Diego, Calif.). Analysis of Synergy: The Bliss additivism model was used to classify the effect of combining OSI-027 and OSI-906 as additive, synergistic or antagonistic. A theoretical curve was calculated for combined inhibition using the equation: Ebliss=EA+EB−EA*EB, where EA and EB are the fractional inhibitions obtained by drug A alone and drug B alone at specific concentrations. Here, Ebliss is the fractional inhibition that would be expected if the combination of the two drugs was exactly additive. If the experimentally measured fractional inhibition was less than Ebliss the combination was said to be synergistic. If the experimentally measured fractional inhibition was greater than Ebliss the combination was said to be antagonistic. For dose response curves, the bliss additivity was calculated for varying doses of drug A when combined with a constant dose of drug B. This allowed an assessment as to whether drug B affected the potency of drug A or shifted its intrinsic activity. All plots were generated using Graphpad Prism software.
# Ovcar3 = test: as above; format: cell-based, Human; conditions: Ovcar3, single agent, cell viability at 72 hours
# Protocol: as §2
# MDAH2774 = test: as above; format: cell-based, Human; conditions: MDAH2774 (KRAS mutant), single agent, cell viability at 72 hours
# Protocol: as §2
# Ovcar-5 cells = test: Caspase 3/7 Glo apoptosis assay; format: cell-based, Human; conditions: 48 hrs after treatment, OSI-027 varying doses alone or with 5 uM OSI-906
# Protocol: Measurement of apoptosis: […] Cell lines were seeded at a density of 3000 cells per well in a 96-well plate. 24 hours after plating cells were dosed with varying concentrations of drug, either as a single agent or in combination. […] The caspase 3/7 activity was normalized to cell number per well, using a parallel plate treated with Cell Titer Glo (Promega Corporation, Madison, WI). Signal for each well was normalized using the following formula: Caspase 3/7 Glo luminescence units/Cell Titer Glo fraction of DMSO control. All graphs were generated using PRISM® software (Graphpad Software, San Diego, Calif.). […] A theoretical curve was calculated for combined inhibition using the equation: Ebliss=EA+EB−EA*EB, where EA and EB are the fractional inhibitions obtained by drug A alone and drug B alone at specific concentrations. […] If the experimentally measured fractional inhibition was less than Ebliss the combination was said to be synergistic. If the experimentally measured fractional inhibition was greater than Ebliss the combination was said to be antagonistic. For dose response curves, the bliss additivity was calculated for varying doses of drug A when combined with a constant dose of drug B. This allowed an assessment as to whether drug B affected the potency of drug A or shifted its intrinsic activity. […]
# p-4E-BP1(T37/46) = test: Western blot of phospho-4E-BP1; format: cell-based, Human; conditions: 300 nM each agent; 2 hours
# Protocol: (§3) Cell extracts were prepared by detergent lysis (50 mM Tris-HCl, pH 8.0, 150 mM NaCl, 1% NP-40, 0.5% sodium deoxycholate, 0.1% SDS, containing protease inhibitor (P8340, Sigma, St. Louis, Mo.) and phosphatase inhibitor (P5726, Sigma, St. Louis, Mo.) cocktails. The soluble protein concentration was determined by micro-BSA assay (Pierce, Rockford, Ill.). Pixel density was determined using AlphaEaseFC software (Alpha Innotech, San Leandro, Calif.). Protein immunodetection was performed by electrophoretic transfer of SDS-PAGE separated proteins to nitrocellulose, incubation with antibody, and chemiluminescent second step detection (PicoWest; Pierce, Rockford, Ill.). The antibodies included: 4E-BP1, p-4E-BP1(T37/46), PRAS40, and pPRAS40 ([…]). Antibodies were obtained from Cell Signaling Technology, Inc. (Danvers, Mass.). […] The media was removed, cells were washed two times with PBS, and cells were lysed as previously described.
# H460 NSCLC xenograft = test: Tumor growth inhibition in vivo, xenograft; conditions: single agent
# Protocol: Evaluation of tumor growth inhibition in vivo: Evaluation of tumor growth inhibition in vivo was conducted at OSI facilities with the approval of the Institutional Animal Care and Use Committee (IACUC) in an American Association for Accreditation of Laboratory Animal Care (AAALAC) accredited vivarium and in accordance with the Institute of Laboratory Animal Research (Guide for the Care and Use of Laboratory Animals, NIH, Bethesda, Md., USA). For this study, female athymic nude nu/nu CD-1 mice (6-8 wks, 20-28 g, Charles River Laboratories, Wilmington, Mass., USA) were allowed to acclimate for a minimum of one week prior to initiation of the study. To evaluate tumor growth inhibition, cells were harvested from cell culture flasks during exponential cell growth, washed twice with sterile PBS, counted and resuspended in PBS to a suitable concentration before subcutaneous implantation on the right flank of nu/nu CD-1 mice. Tumors were established to 200±50 mm^3 in size before randomization into treatment groups of 8 mice each. […]
# where Tt=median tumor volume of treated at time t; T0=median tumor volume of treated at time 0; Ct=median tumor volume of control at time t; and C0=median tumor volume of control at time 0. The average TGI over the dosing period was then calculated and reported. […]
# Igrov1 = test: Cell Titer Glo proliferation assay, ovarian cell line panel; format: cell-based, Human; conditions: Igrov1, single agent, cell viability at 72 hours
# Protocol: Cell lines: Human cancer cell lines were purchased from the American Type Culture Collection (ATCC). The cell lines Ovcar-3, MDAH2774, Caov3, lgrov-1, and MDA-MB-231 were grown in media as prescribed by the ATCC, containing 10% FCS. HNSCC 1483, HNSCC 1386, HNSCC 1186 were a gift from Memorial Sloan Kettering and were cultured in 1:1 DMEM: Hams F12 with 10% FCS. Ovcar-4, Ovcar-5, and Ovcar-8 were obtained from the NCI and were grown in RPMI with 10% FCS. Measurement of proliferation: Inhibition of proliferation was measured using the Cell Titer Glo Assay (Promega Corporation, Madison, WI). Cell lines were seeded at a density of 3000 cells per well in a 96-well plate. 24 hours after plating cells were dosed with varying concentrations of drug, either as a single agent or in combination. […] Inhibition of proliferation, relative to vehicle-treated controls was expressed as a fraction of 1 and graphed using PRISM® software (Graphpad Software, San Diego, Calif.).
# [5] = test system: pPRAS40 (T246) in MDAH2774; test: Western blot of phospho-PRAS40; format: cell-based, Human; conditions: 300 nM each agent, 2 hours
# Protocol: as §3
Compound,phosphorylation of IGF-1R [1],phosphorylation of IR [2],phosphorylation of IGF-1R [3],phosphorylation of IR [4],sensitivity of cell line (inhibition of proliferation) (Ovcar-5),sensitivity of cell line (inhibition of proliferation) (Ovcar3),sensitivity of cell line (inhibition of proliferation) (MDAH2774),induction of apoptosis (caspase 3/7 activity) (Ovcar-5 cells),phosphorylation of 4E-BP1 (p-4E-BP1(T37/46)),tumor growth inhibition (TGI) (H460 NSCLC xenograft; OSI-027 50 mg/kg oral daily for 14 days),sensitivity of cell line (inhibition of proliferation) (Igrov1),inhibition of phosphor-PRAS40 [5],tumor growth inhibition (TGI) (H460 NSCLC xenograft; OSI-906 60 mg/kg once-daily for 14 days)
"COc1cccc2cc(-c3nc([C@H]4CC[C@H](C(=O)O)CC4)n4ncnc(N)c34)[nH]c12 [OSI-027, trans-4-[4-amino-5-(7-methoxy-1H-indol-2-yl)imidazo[5,1-f][1,2,4]triazin-7-yl]cyclohexanecarboxylic acid]",hyperphosphorylation of IGF-1R,hyperphosphorylated,increased,increased,relatively insensitive,most sensitive,relatively insensitive,did not significantly induce apoptosis,reduced,66%,most sensitive,partial inhibition,
"C[C@]1(O)C[C@@H](c2nc(-c3ccc4ccc(-c5ccccc5)nc4c3)c3c(N)nccn32)C1 [OSI-906, cis-3-[8-amino-1-(2-phenylquinolin-7-yl)-imidazo[1,5-a]pyrazin-3-yl]-1-methylcyclobutanol]",,"fully attenuates phosphor-IR, below the basal level",reduced,reduced,most sensitive,among the least sensitive,most sensitive,,No significant decrease,,among the least sensitive,inhibits phosphor-PRAS40 to a greater degree,69%
Nc1nccn2c1c(-c1cc3cccc(Cl)c3[nH]1)nc2[C@H]1CC[C@H](C(=O)O)CC1 [OXA-01],increases p-IGF-1R to a greater degree than erlotinib,,,,,,,,,,,,
"C#Cc1cccc(Nc2ncnc3cc(OCCOC)c(OCCOC)cc23)c1 [erlotinib, reference compound]",hyperphosphorylation of IGF-1R,,,,,,,,,,,,
